Molecular target: T1, bacterial PC-PLC (Bacillus cereus) (Bacillus cereus, UniProt P09598)
T1 construct: purchased SigmalAldrich (Deisenhofen, Germany)
Assay: PC-PLC assay (dipalmitoyllecithin)
Format: biochemical
Conditions: 50 μM
Experimental: Hormone-sensitive lipase (HSL) and lipoprotein lipase (LPL) were measured using a radiolabeled triolein droplet emulsion as described in “Vertesy et al., (2002) Journal Antibiotics 55:480-494”. Pancreatic lipase (PL) was determined by incubation of 0.25 mmol tributyrin in 2 ml of 5 mM Tris/HCl (pH 6.5), 6 mM sodium taurodeoxycholate, 150 mM NaCl, 1 mM CaCl2 with porcine PL and colipase in the same buffer using a recording pH stat (stirring at 1000 rpm at 25° C.) with the pH adjusted to 6.5. PC-PLC was assayed by incubation of 0.2 ml of 10 mM dipalmitoyllecithin, 0.1 ml of 10 mM SDC and 0.1 ml of 0.03 M CaCl2 with bacterial PC-PLC (in 50 mM Tris/HCl, pH 7.5, 0.1% BSA) for 10 min at 37° C. The reaction was terminated by addition of 0.1 ml of 50% TCA and subsequently of 2.5 ml of […]. After centrifugation (1500×g, 15 min), 0.2-ml portions of the upper methanol/water phase (˜1.33 ml) were removed, supplemented with 0.5 ml of 60% HClO4, then heated at 170° C. for 1 h and finally analyzed for inorganic phosphate. Mammalian PI-PLC was measured by incubation of 0.1 ml of 10 mM PI, 0.1 ml of 0.8% sodium deoxycholate, 0.1% BSA, 0.2 ml of 100 mM sodium borate (pH 7.5) and rat liver PI-PLC for 20 min at 37° C. The reaction was terminated and further processed as described for the PC-PLC. […] Radioactive phosphatidic acid was detected by phosphorimaging. […]

T1 sequence (P09598 39-283 limits assumed): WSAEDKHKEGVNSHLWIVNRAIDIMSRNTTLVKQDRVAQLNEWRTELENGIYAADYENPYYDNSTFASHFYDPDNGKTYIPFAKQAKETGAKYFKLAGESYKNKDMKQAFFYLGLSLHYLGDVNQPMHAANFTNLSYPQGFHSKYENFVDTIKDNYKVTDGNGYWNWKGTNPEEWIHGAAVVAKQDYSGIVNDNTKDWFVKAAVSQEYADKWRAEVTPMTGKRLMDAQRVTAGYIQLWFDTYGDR

In the case of `CCCCCCCCCCCCP1(=O)O[C@@H]2[C@H](O)[C@@H](O)[C@H](O)[C@@H](O)[C@@H]2O1` (stereo partly shown) [GPI-2350, myo-inositol-1,2-cyclo-dodecylphosphonic acid], the “effect on PC-PLC” value is reported as “not significantly affected”.
